Experimental data as given in patent publication US12408664B2 (priority 2018, dated 2025).
Like-named read-outs stand apart in the source and are kept apart here.

What was measured:
S. homoeocarpa [1] = assay: Plug transfer to PDA plates without calcium propionate (fungistatic or fungicidal); assay type: cell-based, Scerotinia homoeocarpa
S. homoeocarpa [2] = assay: New inoculants in MEB liquid culture amended with calcium propionate; assay type: cell-based, Scerotinia homoeocarpa; settings: MEB with 1, 2, 5 and 10% (w/v) calcium propionate; five days
Procedure: To examine the effective dose range in liquid culture, malt extract broth (MEB) was prepared and amended with calcium propionate at concentrations of 1, 2, 5 and 10% (w/v). Unamended MEB was used as a control for growth. Each of the four microbes identified in Example 1 was tested twice by inoculating MEB using agarose plugs from luxuriant cultures. Growth was observed over five days. In each microbe examined, visible growth in liquid culture was apparent by day 2 following inoculation with well-established growth by 4 days in the absence of calcium propionate.

R. solani = assay: Established liquid cultures, two days calcium propionate then washout; assay type: cell-based, Rhizoctonia solani
Procedure: To further examine the impact of calcium propionate on established liquid cultures, MEB was inoculated by plug transfer and cultures were allowed to grow for one to six days. Following this, calcium propionate was added to active cultures to a final concentration of 1%, 2%, or 5% (w/v); control cultures had no calcium propionate. Calcium propionate was then added to established one to six day old cultures and cultures were allowed to grow in the presence of calcium propionate for two days, after which, calcium propionate was washed out and cultures were returned to MEB only. Growth following calcium propionate washout was recorded over 14 days.

S. homoeocarpa [3] = assay: Zone of inhibition assay on PDA plates; assay type: cell-based, Scerotinia homoeocarpa
Procedure: To test the efficacy of calcium propionate (CaP) against the four microbes listed above, zone of inhibition assays were performed. Wells were bored in potato dextrose agarose (PDA) plates then amended with […] calcium propionate at concentrations of 0.1%, 0.2%, 0.3%, 0.4%, and 0.5% (w/v). Control plates were amended with […] dH2O. Plates were inoculated using plugs from active cultures. Growth patterns were observed over seven days. Representative results with M. poae are shown at three days following inoculation (FIG. 1A) and seven days following inoculation (FIG. 1B).
The zone of inhibition assays described in Example 1 were performed using calcium propionate doses of 0.5%, 1%, 2%, 3%, and 4% (w/v). Growth diameter was recorded at 2, 5, and 7 days post inoculation. The data shown in Table 1 represent the average±standard deviation (SD) of two replicate plates for each strain tested.
Zone of inhibition assays using PDA plates amended with 5-12% (w/v) calcium propionate were performed as described above. As a control, plates were amended with a composition comprising propiconazole, a commonly used fungicidal treatment for microbe infection of turfgrass, sold under the trademark Banner MaxxII®. Growth diameter was recorded for 13 days post inoculation. The data shown in Table 2 represent the average±standard deviation (SD) of three replicate plates for each strain tested. Inoculants of S. homoeocarpa, M. poae, and R. solani generally grow to luxuriant culture, covering the entire surface of the plate (8.5 cm growth) in 7 days.

M. poae [4] = assay type: cell-based, Magnaporthe poae; settings: MEB with 1, 2, 5 and 10% (w/v) calcium propionate; five days
Fusarium oxysporum = assay: Golf Course 2: infected live turfgrass, visual detection of Fusarium oxysporum infection; assay type: in vivo; settings: 3-4 grams per square meter every 10 days, 5% (w/v) solution sprayed; 10 days following initial application
Procedure: Calcium propionate was dissolved in water to form a 5% (w/v) solution. […] The turfgrass was comprised primarily of Agrostis capillaris. The calcium propionate 5% (w/v) solution was sprayed onto the turfgrass at a concentration of 3-4 grams per square meter every 10 days.

M. poae [5] = assay type: cell-based, Magnaporthe poae
M. poae [6] = assay type: cell-based, Magnaporthe poae; settings: MEB with 1%, 2%, 5% or 10% (w/v) calcium propionate; five days
dollar spot = assay: Golf Course 1: infected live turfgrass, visual inspection for dollar spot; assay type: in vivo, Scerotinia homoeocarpa
Procedure: Calcium propionate was dissolved in water to form a 5% (w/v) solution. […] Zone 1 was left untreated, Zone 2 was treated with 2.5 grams calcium propionate per square meter, Zone 3 was treated with 5 grams of calcium propionate per square meter, and Zone 4 was treated with 10 grams of calcium propionate per square meter. The turfgrass was comprised primarily of Festuca rubra. The calcium propionate 5% (w/v) solution was sprayed onto the turfgrass.
The four zones were visually inspected for dollar spot after 10 days. […] In contrast, dollar spot could, still be visually detected in untreated Zone 1.
Thereafter, all of the zones (1-4) were treated with 5 grams of calcium propionate per square meter. The calcium propionate 5% (w/v) solution was sprayed onto the turfgrass every 10 to 14 days.

F. oxysporum = assay: Fungal plugs on YPA or PDA amended with CaP; assay type: cell-based, Fusarium oxysporum; settings: seven days, data not shown
Procedure: Cultures of F. oxysporum were grown on PDA medium until luxuriant. To test the effect of calcium propionate (CaP), fungal plugs were transferred to YPA or PDA amended with CaP and growth was monitored for seven days. YPA plates were amended with 1%, 4%, or 15% CaP.

[7] = 1%, 2% or 5% (w/v), established one to six day old cultures, two days
[8] = all concentrations tested (1-5% w/v)

Which “fungistatic or fungicidal effect, S. homoeocarpa” value (S. homoeocarpa [1]; 5% (w/v) calcium propionate) does the source give for `CCC(=O)[O-].CCC(=O)[O-].[Ca+2]` [calcium propionate] here?
The value was “fungicidal effect”.

What about the “growth on unamended PDA after plug transfer, S. homoeocarpa” value (S. homoeocarpa [1]; plugs initially grown on 5, 7.5, 10 or 12% (w/v) calcium propionate, observed 14 days) of the same molecule?
Its value is “No growth was seen”.

And the “growth in liquid culture, S. homoeocarpa” value (S. homoeocarpa [2])?
Its value is “no growth was observed”.

What about the “growth while calcium propionate was present, R. solani” value (R. solani; [7]) of the same molecule?
The value was “growth was inhibited”.

And the “growth inhibition over two weeks after removal, R. solani” value (R. solani; [8])?
The value was “some minor growth inhibition”.

What about the “growth three days following removal of calcium propionate, R. solani” value (R. solani; concentrations examined (1-5% w/v)) of the same molecule?
The value was “robust growth was observed”.

And the “growth inhibition in repeated experiments, S. homoeocarpa” value (S. homoeocarpa [3]; 2-4% (w/v) calcium propionate, repeat, data not shown)?
The value was “mixed”.

And the “Growth, S. homeocarpa” value (S. homoeocarpa [3]; 5-12% (w/v) calcium propionate, day 2, average ± SD of three plates)?
Its value is 2.8 ± 0.2 cm.

And the “Growth, S. homeocarpa” value (S. homoeocarpa [3]; 5-12% (w/v) calcium propionate, day 3, average ± SD of three plates)?
The value was 3.5 ± 0.3 cm.

What about the “Growth, S. homeocarpa” value (S. homoeocarpa [3]; 5-12% (w/v) calcium propionate, day 6, average ± SD of three plates) of the same molecule?
Its value is 3.8 ± 0.1 cm.

What about the “Growth, S. homeocarpa” value (S. homoeocarpa [3]; 5-12% (w/v) calcium propionate, day 7, average ± SD of three plates) of the same molecule?
The value was 4.3 ± 0.3 cm.

And the “Growth, S. homeocarpa” value (S. homoeocarpa [3]; 5-12% (w/v) calcium propionate, day 10, average ± SD of three plates)?
Its value is 6.2 ± 0.3 cm.

What about the “Growth, S. homeocarpa” value (S. homoeocarpa [3]; 5-12% (w/v) calcium propionate, day 13, average ± SD of three plates) of the same molecule?
Its value is 7.8 ± 0.6 cm.

What about the “growth inhibition, S. homoeocarpa” value (S. homoeocarpa [3]; wells 0.1-0.5% (w/v) calcium propionate, observed over seven days) of the same molecule?
The value was “no growth inhibition was observed”.

What about the “Growth, S. homeocarpa” value (S. homoeocarpa [3]; wells 0.5-4% (w/v) calcium propionate, day 2, average ± SD of two plates) of the same molecule?
Its value is 1.9 ± 0.3 cm.

What about the “Growth, S. homeocarpa” value (S. homoeocarpa [3]; wells 0.5-4% (w/v) calcium propionate, day 5, average ± SD of two plates) of the same molecule?
The value was 4.5 ± 0.5 cm.

And the “Growth, S. homeocarpa” value (S. homoeocarpa [3]; wells 0.5-4% (w/v) calcium propionate, day 7, average ± SD of two plates)?
The value was 6.08±0.57 cm.

What about the “Growth, S. homeocarpa” value (S. homoeocarpa [3]; wells 0.5-4% (w/v) calcium propionate, day 7, average ± SD of two plates, listed as Cap) of the same molecule?
Its value is 4.5 ± 0.6 cm.

And the “growth inhibition, S. homoeocarpa” value (S. homoeocarpa [3]; wells 0.5-4% (w/v) calcium propionate, seven day growth period)?
Its value is “clear growth inhibition”.

And the “growth in liquid culture, M. poae” value (M. poae [4])?
Its value is “no growth was observed”.

And the “visual detection of Fusarium oxysporum infection” value (Fusarium oxysporum)?
The value was “could no longer be visually detected”.

And the “growth recovery over 14 days after removal, M. poae” value (M. poae [5]; 1% or 2% (w/v) calcium propionate)?
Its value is “varying degrees of growth recovery”.

What about the “growth while calcium propionate was present, M. poae” value (M. poae [5]; [7]) of the same molecule?
Its value is “growth was inhibited”.

And the “growth recovery over 14 days after removal, M. poae” value (M. poae [5]; 5% (w/v) treatment)?
The value was “no growth recovery was observed”.

What about the “growth three days following removal of calcium propionate, M. poae” value (M. poae [5]; [8]) of the same molecule?
The value was “continued growth inhibition”.

What about the “growth of disrupted culture, M. poae” value (M. poae [6]) of the same molecule?
Its value is “No growth was observed”.

What about the “visual detection of dollar spot” value (dollar spot; Zone 2: 2.5 grams per square meter, 5% (w/v) solution sprayed, after 10 days) of the same molecule?
Its value is “could no longer be visually detected”.

And the “visual detection of dollar spot” value (dollar spot; Zone 3: 5 grams per square meter, 5% (w/v) solution sprayed, after 10 days)?
Its value is “could no longer be visually detected”.

What about the “visual detection of dollar spot” value (dollar spot; Zone 4: 10 grams per square meter, 5% (w/v) solution sprayed, after 10 days) of the same molecule?
The value was “could no longer be visually detected”.

And the “visual detection of dollar spot” value (dollar spot; zones 1-4, 5 grams per square meter every 10 to 14 days, several months (late summer to early spring))?
Its value is “could not be visually detected”.

What about the F. oxysporum growth (F. oxysporum; YPA amended with 1% CaP) of the same molecule?
Its F. oxysporum growth is “not impacted”.

What about the F. oxysporum growth (F. oxysporum; YPA amended with 4% or 15% CaP) of the same molecule?
The F. oxysporum growth was “unable to grow”.
